Consider 17 compounds from patent US8680159B2, “Bradykinin 1 receptor modulating compounds” (Gruenenthal GmbH, priority 2010, dated 2014).

Structures are written as SMILES.

The target of the first experiment is T1, human B1R receptor (CHO K1 cells stably transfected with the human B1R gene) (Homo sapiens, UniProt P46663).
T1 construct: expressed in transfected cells; host or cells: CHO K1 cells (Chinese hamster ovary), stably transfected
T1 sequence (P46663 1-353): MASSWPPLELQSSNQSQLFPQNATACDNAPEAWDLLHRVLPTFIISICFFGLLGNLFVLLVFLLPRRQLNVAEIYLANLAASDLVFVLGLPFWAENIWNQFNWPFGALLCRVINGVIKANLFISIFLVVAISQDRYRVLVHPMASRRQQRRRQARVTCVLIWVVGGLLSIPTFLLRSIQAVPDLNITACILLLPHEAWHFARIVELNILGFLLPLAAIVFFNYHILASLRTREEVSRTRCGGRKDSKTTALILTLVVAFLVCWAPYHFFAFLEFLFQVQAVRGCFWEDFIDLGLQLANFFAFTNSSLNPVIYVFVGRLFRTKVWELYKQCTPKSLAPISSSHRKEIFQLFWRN
Put plainly: Functional study on the bradykinin receptor 1 (B1R), Ca2+ fluorescence (Fluo-4) FLIPR/Novostar assay, hB1R cells. The conditions noted are these: CHO-K1, read-out: % Inhibition (h-B1R) at 10 μM. Type of experiment: cell-based. The protocol:
The agonistic or antagonistic action of substances can be quantified on the bradykinin receptor 1 (B1R) of the species human and rat using ectopically expressing cell lines (CHO K1 cells) and with the aid of a Ca^2+-sensitive dye (Fluo-4) using a fluorescent imaging plate reader (FLIPR). The indication in % activation is based on the Ca^2+ signal after addition of Lys-Des-Arg^9-bradykinin (0.5 nM) or Des-Arg^9-bradykinin (100 nM). Antagonists lead to suppression of the Ca^2+ influx after the addition of the agonist. % Inhibition compared with the maximum achievable inhibition is indicated.
The agonistic or antagonistic action of substances can be determined on the bradykinin receptor 1 (B1R) of the species human and rat using the following assay. According to this assay, the increase in intracellular Ca^2+ following administration of a B1R agonist is quantified with the aid of a Ca^2+-sensitive dye (Fluo-4 type, Molecular Probes Europe BV, Leiden, Netherlands) using a Fluorescent Imaging Plate Reader (FLIPR, Molecular Devices, Sunnyvale, USA) and/or using a Novostar (BMG Labtech GmbH, Offenburg, Germany).
Chinese hamster ovary cells (CHO K1 cells) which have been stably transfected with the human B1R gene (hB1R cells) or with the B1R gene of the rat (rB1R cells) are used. For functional studies, the cells are plated out on black 96-well plates having a clear base (BD Biosciences, Heidelberg, Germany or Greiner, Frickenhausen, Germany) in a density of 20,000-35,000 cells/well. The cells are left overnight at 37° C. and with 5% CO2 in culture medium (hB1R cells: Nutrient Mixture Ham's F12, Gibco Invitrogen GmbH, Karlsruhe, Germany or DMEM, Sigma-Aldrich, Taufkirchen, Germany; rB1R cells: D-MEM/F12, Gibco Invitrogen GmbH, Karlsruhe, Germany), with 10 vol. % FBS (fetal bovine serum, Gibco Invitrogen GmbH, Karlsruhe, Germany or PAN Biotech GmbH, Aidenbach, Germany). On the following day, the cells are loaded for 60 minutes at 37° C. with 2.13 μM Fluo-4 (Molecular Probes Europe BV, Leiden, Netherlands) in HBSS buffer (Hank's buffered saline solution, Gibco Invitrogen GmbH, Karlsruhe, Germany) […] (Sigma-Aldrich, Taufkirchen, Germany) and 10 mM HEPES (Sigma-Aldrich, Taufkirchen, Germany). The plates are then washed twice with HBSS buffer, and HBSS buffer additionally containing 0.1% BSA (bovine serum albumin; Sigma-Aldrich, Taufkirchen, Germany), 5.6 mM glucose and 0.05% gelatin (Merck KGaA, Darmstadt, Germany) is added to the plates. After incubation for a further 20 minutes at room temperature, the plates are inserted into the FLIPR or Novostar for Ca^2+ measurement. Alternatively, washing is carried out with buffer A (15 mM HEPES, 80 mM NaCl, 5 mM KCl, 1.2 mM CaCl2, 0.7 mM MgSO4, 2 g/l glucose, 2.5 mM probenecid) followed by loading with buffer A with added 2.5 μM Fluo-4 and 0.025% Pluronic F127 (Sigma-Aldrich, Taufkirchen, Germany). The cells are then washed twice with buffer A and incubated for 30 minutes at room temperature with buffer A additionally containing 0.05% BSA and 0.05% gelatin and are then inserted into the FLIPR or Novostar for Ca^2+ measurement. The Ca^2+-dependent fluorescence is measured before and after the addition of substances (λex=488 nm, λem=540 nm). Quantification is carried out by measuring the highest fluorescence intensity (FC, fluorescence counts) over time.
The FLIPR protocol consists of 2 substance additions, which are pipetted in the FLIPR. In the case of measurements using the Novostar, only the second substance addition is pipetted in the device. Both devices measure the fluorescence intensity over time. Test substances (10 μM) are first pipetted onto the cells and the intracellular Ca^2+ increase is compared with the control (hB1R: Lys-Des-Arg^9-bradykinin>=50 nM; rB1R: Des-Arg^9-bradykinin>=1 μM). This gives the % activation, based on the Ca^2+ signal after addition of Lys-Des-Arg^9-bradykinin (>=50 nM) or Des-Arg^9-bradykinin (>=1 μM). […]
In the case of `CN(C(=O)c1ccc2c(c1)C(NC(=O)c1c(Cl)cccc1C(F)(F)F)CC2)C1CCN(c2ccncc2)CC1` (centres unmarked) [CC_H-137, 3-[[2-Chloro-6-(trifluoromethyl)-benzoyl]amino]-N-methyl-N-(1-pyridin-4-yl-piperidin-4-yl)-2,3-dihydro-1H-indene-5-carboxylic acid amide], the inhibition (commonly the drop in the measured response relative to a control, in per cent) at 10 µM was determined as 96%.
Same read-out and setting: to `Cc1cc(N2CCC(N(C)C(=O)c3ccc4c(c3)C(N(C)C(=O)c3ccccc3Cl)CC4)CC2)cc(C)n1` (centres unmarked) [CC_H-87, 3-[(2-Chloro-benzoyl)-methyl-amino]-N-[1-(2,6-dimethyl-pyridin-4-yl)-piperidin-4-yl]-N-methyl-2,3-dihydro-1H-indene-5-carboxylic acid amide] belongs 100%; to `Cc1cccc(C)c1C(=O)NC1CCc2ccc(C(=O)N(C)C3CCN(c4ccncc4)CC3)cc21` (centres unmarked) [CC_H-138, 3-[(2,6-Dimethyl-benzoyl)amino]-N-methyl-N-(1-pyridin-4-yl-piperidin-4-yl)-2,3-dihydro-1H-indene-5-carboxylic acid amide], 98%.
As to `Cc1cc(N2CCC(N(C)C(=O)c3ccc4c(c3)C(NC(=O)c3c(Cl)cccc3C(F)(F)F)CC4)CC2)cc(C)n1` (centres unmarked) [CC_H-107, 3-[[2-Chloro-6-(trifluoromethyl)-benzoyl]amino]-N-[1-(2,6-dimethyl-pyridin-4-yl)-piperidin-4-yl]-N-methyl-2,3-dihydro-1H-indene-5-carboxylic acid amide], the inhibition at 10 µM worked out at 97%.
With `Cc1cc(N2CCC(N(C)C(=O)c3ccc4c(c3)C(N(C)C(=O)c3cncnc3)CC4)CC2)cc(C)n1` (centres unmarked) [CC_H-92, N-[6-[[1-(2,6-Dimethyl-pyridin-4-yl)-piperidin-4-yl]-methyl-carbamoyl]-2,3-dihydro-1H-inden-1-yl]-N-methyl-pyrimidine-5-carboxylic acid amide], the inhibition at 10 µM came to 98%.
Still for that read-out and setting: the value for `Cc1cc(N2CCC(N(C)C(=O)c3ccc4c(c3)C(NC(=O)c3cc(F)ccc3Cl)CC4)CC2)cc(C)n1` (centres unmarked) [CC_H-119, 3-[(2-Chloro-5-fluoro-benzoyl)amino]-N-[1-(2,6-dimethyl-pyridin-4-yl)-piperidin-4-yl]-N-methyl-2,3-dihydro-1H-indene-5-carboxylic acid amide] was 100%; that for `Cc1cccc(C)c1C(=O)NC1CC(C)(C)c2ccc(C(=O)N(C)C3CCN(c4ccncc4)CC3)cc21` (centres unmarked) [CC_H-85, 3-[(2,6-Dimethyl-benzoyl)amino]-N,1,1-trimethyl-N-(1-pyridin-4-yl-piperidin-4-yl)-2,3-dihydro-indene-5-carboxylic acid amide] was 99%.
Consider `CN(C(=O)c1ccc2c(c1)C(NS(=O)(=O)Cc1ccccc1C(F)(F)F)CCC2)C1CCN(c2ccncc2)CC1` (centres unmarked) [CC_H-125, N-Methyl-N-(1-pyridin-4-yl-piperidin-4-yl)-8-[[[2-(trifluoromethyl)-phenyl]-methylsulfonyl]amino]-5,6,7,8-tetrahydro-naphthalene-2-carboxylic acid amide], for which the inhibition at 10 µM was found to be 100%.
Regarding `Cc1cc(N2CCC(N(C)C(=O)c3ccc4c(c3)C(NC(=O)C3CCCCC3)CC4)CC2)cc(C)n1` (centres unmarked) [CC_H-123, 3-(Cyclohexanecarbonylamino)-N-[1-(2,6-dimethyl-pyridin-4-yl)-piperidin-4-yl]-N-methyl-2,3-dihydro-1H-indene-5-carboxylic acid amide], the inhibition at 10 µM came to 100%.
For the compound `CC(C)CC(=O)NC1CCc2ccc(C(=O)NCCC3CCN(c4ccncc4)CC3)cc21` (centres unmarked) [CC_H-132, 3-(3-Methyl-butanoylamino)-N-[2-(1-pyridin-4-yl-piperidin-4-yl)-ethyl]-2,3-dihydro-1H-indene-5-carboxylic acid amide], the inhibition at 10 µM was found to be 99%.
Still for that read-out and setting: the value for `CN(C(=O)c1ccc2c(c1)C(NC(=O)c1c(Cl)cccc1C(F)(F)F)CCO2)C1CCN(c2ccncc2)CC1` (centres unmarked) [CC_H-72, 4-[[2-Chloro-6-(trifluoromethyl)-benzoyl]amino]-N-methyl-N-(1-pyridin-4-yl-piperidin-4-yl)-3,4-dihydro-2H-chromene-6-carboxylic acid amide] was 93%.

Still in this experiment, the particulars now being: CHO-K1, read-out: % inhibition (human B1R) at 10 μM.
For the compound `CN(C(=O)c1ccc2c(c1)[C@H](N(C)C(=O)CCC1CCCC1)CC2)C1CCN(c2ccncc2F)CC1` [Example H-188, (3R)-3-(3-Cyclopentyl-propanoyl-methyl-amino)-N-[1-(3-fluoro-pyridin-4-yl)-piperidin-4-yl]-N-methyl-2,3-dihydro-1H-indene-5-carboxylic acid amide], the inhibition at 10 µM was found to be 100%.
Consider `Cc1cc(N2CCC(CCNC(=O)c3ccc4c(c3)[C@H](NC(=O)c3ccccc3Cl)CC4)CC2)nc(C)n1` [Example H-215, (3R)-3-[(2-Chloro-benzoyl)amino]-N-[2-[1-(2,6-dimethyl-pyrimidin-4-yl)-piperidin-4-yl]-ethyl]-2,3-dihydro-1H-indene-5-carboxylic acid amide], for which the inhibition at 10 µM worked out at 95%.
`Cc1cc(N2CCC(N(C)C(=O)c3ccc4c(c3)[C@H](N(C)C(=O)c3cccc(F)c3Cl)CC4)CC2)nc(C)n1` [Example H-195, (3R)-3-[(2-Chloro-3-fluoro-benzoyl)-methyl-amino]-N-[1-(2,6 dimethyl-pyrimidin-4-yl)-piperidin-4-yl]-N-methyl-2,3-dihydro-1H-indene-5-carboxylic acid amide]: the inhibition at 10 µM came to 100%.
In the case of `CC(C)N(C(=O)c1cccc(F)c1Cl)[C@@H]1CCc2ccc(C(=O)N(C)C3CCN(c4ccncc4)CC3)cc21` [Example H-202, (3R)-3-[(2-Chloro-3-fluoro-benzoyl)-isopropyl-amino]-N-methyl-N-(1-pyridin-4-yl-piperidin-4-yl)-2,3-dihydro-1H-indene-5-carboxylic acid amide], the inhibition at 10 µM came out at 100%.
On to `Cc1cc(N2CCC(N(C)C(=O)c3cc4c(cc3F)CC[C@H]4N(C(=O)c3ccc(F)cc3Cl)C(C)C)CC2)nc(C)n1` [Example H-198, (3R)-3-[(2-Chloro-4-fluoro-benzoyl)-isopropyl-amino]-N-[1-(2,6-dimethyl-pyrimidin-4-yl)-piperidin-4-yl]-6-fluoro-N-methyl-2,3-dihydro-1H-indene-5-carboxylic acid amide], for which the inhibition at 10 µM stood at 76%.
The same measure, in the same setting: to `Cc1cc(N2CCC(N(C)C(=O)c3ccc4c(c3)[C@H](N(C(=O)c3cccc(F)c3Cl)C(C)C)CC4)CC2)nc(C)n1` [Example H-196, (3R)-3-[(2-Chloro-3-fluoro-benzoyl)-isopropyl-amino]-N-[1-(2,6-dimethyl-pyrimidin-4-yl)-piperidin-4-yl]-N-methyl-2,3-dihydro-1H-indene-5-carboxylic acid amide] belongs 98%.
